Data reported in patent US4837239A, “Cardiotonic phosphodiesterase inhibitors complexed with water soluble vitamins” (Syntex (U.S.A.) Inc., priority 1986, dated 1989).
≈ marks a conversion by molar mass, not a printed value.

Assays:
Type in all cases: physicochemical
[1] = Solution-phase stability / shelf life (kinetic studies)
Text: A significant advantage of the lyophilization procedure of the present invention is that it provides for an extended shelf life as compared to that of the class of ocyalkylamides or even their vitamin complexes in solution. For example, the shelf life of a solution of the ascorbic acid complex of N-cyclohexyl-N-methyl-4-(2-oxo-1,2,3,5-tetrahydro-imidazo-[2,1-b]quinazolin-7-yl) oxybutyramide is only about 5 days. The lyophilized product prepared according to the formulation method of the present invention can be expected to permit a shelf life of at least two years.
The reason for the generally brief shelf lives in solution is that the class of oxyalkylamides has limited solution-phase stability. […] At pH 2, at which the compound is formulated, shelf life (T90) is less than a week. In a concentrated form in neat dimethylacetamide, polyethylene glycol or the like, the T90 is only about three weeks.

[2] = Water solubility after complexation with ascorbic acid and lyophilization
Description: (§1) The improvement in solubility in the presence of water-solublevitamins is specifically illustrated by FIGS. 1 and 2. […] The solubility is still further enhanced by the lyophilization process of the present invention. For example, if the lyophilization procedure described below is followed, N-cyclohexyl-N-methyl-4-(2-oxo-1,2,3,5-tetrahydroimidazo-[2,1-b]quinazolin-7-yl)oxybutyramide is water-soluble to the extent of about 5,000 μg/ml at pH2 using 10% ascorbic acid (See FIG. 5).
6.5 grams of the sulfate salt of N-cyclohexyl-N-methyl-4-(2-oxo-1,2,3,5-tetrahydroimidazo[2,1-b]quinazolin- 7-yl)oxyburyamide were dissolved, along with 100 grams of ascorbic acid, 500 ml of tert-butyl alcohol, sufficient sulfuric acid to adjust the pH to 2.0, and sufficient water to bring the volume to 1 liter. The solution was stirred at room temperature for about 10 minutes and filtered with a 0.22 micron Milipore™ cellulose filter. 5 Milliliters of the solution were then dispensed into a 10 ml vial for lyophilization. In the lyophilization procedure, the condenser temperature was initially set to give a shelf temperature of -60° C., and the pressure was initially atmospheric. After the product had frozen, the pressure was gradually dropped to 10 milliTorr, and the vacuum was held for about a day. […]

[3] = Water solubility (phase solubility experiments) with and without water-soluble vitamin; conditions: for solubility: pH 2, read-out: water solubility (free base equivalent)
Text: (§2) The present inventors have discovered that the compounds of Formula (I) form water-soluble complexes with water-soluble vitamins such as ascorbic acid, nicotinamide thiamine and pyridoxine. The phenomenon of complex formation can be confirmed by phase solubility experiments (FIGS. 1 and 2), and by spectral shifts and changes in electrochemical responses of the vitamins in the presence of these compounds (FIGS. 4a and 4b). For example, FIGS. 4a and 4b show the results of a titration of excess ascorbic acid with the hydrogen sulfate salt of N-cyclohexyl-N-methyl-4-(2-oxo-1,2,3,5-tetrahydroimidazo-[2,1-b]quinazolin-7-yl)oxybutyramide. It is hypothesized that the relatively planar tricyclic structure of the compound and the presence of non-bonding electrons on ring heteroatoms renders the compound capable of charge donation to suitable acceptors. In addition, the compound may also function as a charge acceptor due to the presence of a formal positive charge on a ring nitrogen at low pH (i.e., due to the presence of the planar cyclic cationic portion of the compound). Thus, the interaction with the water-soluble vitamin may be defined in terms of the existence of a charge transfer complex, resulting in enhanced water-solubility. […] The decrease in current is due to a lower diffusion coefficient of the complex.
as §1

[4] = Solid state stability in lyophilized powders at accelerated temperature and various states of humidity; conditions: for Appearance (Color): after 7 days
Description: Accordingly, in order to maximize the stability of such a compound for parenteral administration therapy, the present inventors have developed a lyophilization procedure. The lyophilization substantially removes water: the primary nucleophile responsible for the degradative hydrolysis of the compound in solution.
^a Made from 2 mL of tBuOH/AA/H2 O (50/10/40) with pH = 2.0 and
N--cyclohexylN--methyl4-(2-oxo-1,2,3,5-tetrahydroimidazo-2,1-bquinazolin-
-yl)oxybutyramide 130 mL
^b Capped means: not stored in the desiccator with the vial sealed.
47% RH capped and 47% RH holes mean: stored in a 47% relatively humidity
desiccator with the vial capped or covered with aluminum foil with 4 hole
in the foil respectively.
6.5 grams of the sulfate salt of N-cyclohexyl-N-methyl-4-(2-oxo-1,2,3,5-tetrahydroimidazo[2,1-b]quinazolin- 7-yl)oxyburyamide were dissolved, along with 100 grams of ascorbic acid, 500 ml of tert-butyl alcohol, sufficient sulfuric acid to adjust the pH to 2.0, and sufficient water to bring the volume to 1 liter. The solution was stirred at room temperature for about 10 minutes and filtered with a 0.22 micron Milipore™ cellulose filter. 5 Milliliters of the solution were then dispensed into a 10 ml vial for lyophilization. In the lyophilization procedure, the condenser temperature was initially set to give a shelf temperature of -60° C., and the pressure was initially atmospheric. After the product had frozen, the pressure was gradually dropped to 10 milliTorr, and the vacuum was held for about a day. Still under vacuum, the shelf temperature was slowly raised by incrementally increasing the temperature to the following values for about 6 hours at each value: -40° C., -20° C.; -10° C.; 0° C.; and 15°-25° C. During this lyophilization process, all the butanol and water were removed. The final lyophilized powder comprised 32.5 milligrams of N-cyclohexyl-N-methyl-4-(2-oxo-1,2,3,5-tetrahydroimidazo-[2,1-b]quinazolin-7-yl)oxybutyramide sulfate salt and 500 milligrams of ascorbic acid, some residual water (4% w/w) and tert-butyl alcohol (3% w/w) per vial.

[5] = Electrochemical titration of excess ascorbic acid with the drug (FIGS. 4a and 4b); conditions: titration of excess ascorbic acid with hydrogen sulfate salt, in solution
Text: as §2

[6] = 40 °C., 47% RH capped (first line)
[7] = 40 °C., 47% RH capped (second line)

CN(C(=O)CCCOc1ccc2c(c1)CN1CC(=O)NC1=N2)C1CCCCC1 [N-cyclohexyl-N-methyl-4-(2-oxo-1,2,3,5-tetrahydroimidazo-[2,1-b]quinazolin-7-yl)oxybutyramide]
T90 ([1]; concentrated form in neat dimethylacetamide, polyethylene glycol or the like): about three | pH of maximum stability ([1]; in solution): ~6 | estimation shelf life in solution ([1]; in solution, about pH 6): six | shelf life (T90) ([1]; in solution, pH 2): less than a week | degradation catalysis ([1]; kinetic studies in solution): both acid and base catalyzed | solubility ([2]; complexation with a water soluble vitamin and lyophilization (FIG. 5)): enhancement of solubility | solubility ([2]; pH 2, pH2, 10% ascorbic acid, lyophilized (FIG. 5), read-out: water solubility after lyophilization procedure): ~5000 µg/mL (≈ 13 mM) | water solubility ([3]; in the presence of water soluble vitamins, and ethanol and propylene glycol (FIG. 2)): improved water solubility | water solubility ([3]; in the presence of water-soluble vitamins (FIG. 1)): improved water solubility | solubility ([3]; pH2, absence of water-soluble vitamin): ~120 µg/mL | solubility ([3]; water with 10% ascorbic acid, pH2, in the presence of 10% (about 0.6M) ascorbic acid): ~420 µg/mL | % Remaining, 7 days ([4]; 5 °C., Capped): 99.2% | Appearance (Color) ([4]; 5 °C., Capped): White | % Remaining, 7 days ([4]; 25 °C., 47% RH capped): 100% | % Remaining, 36 days ([4]; 25 °C., 47% RH capped): 100% | Appearance (Color) ([4]; 25 °C., 47% RH capped): White | % Remaining, 7 days ([4]; 25 °C., Capped): 100% | % Remaining, 36 days ([4]; 25 °C., Capped): 99.7% | Appearance (Color) ([4]; 25 °C., Capped): White | % Remaining, 7 days [4, 6]: 100% | % Remaining, 36 days [4, 6]: 96.7% | Appearance (Color) [4, 6]: Light yellow | % Remaining, 5 days ([4]; 40 °C., 47% RH capped (second line), 5 days): 99.2% | % Remaining, 7 days [4, 7]: 99.2% | % Remaining, 36 days [4, 7]: 94.5% | Appearance (Color) [4, 7]: Light yellow | % Remaining, 7 days ([4]; 40 °C., Capped): 100% | % Remaining, 36 days ([4]; 40 °C., Capped): 94.4% | Appearance (Color) ([4]; 40 °C., Capped): Light yellow | % Remaining, 7 days ([4]; RT, 47% RH holes): 100% | % Remaining, 36 days ([4]; RT, 47% RH holes): 100% | Appearance (Color) ([4]; RT, 47% RH holes): White | electrochemical response of ascorbic acid [5]: a shift in the peak potential and a reduction of the peak current of ascorbic acid
